{"source": "patent US7230033B2", "about": "“Pest control compositions and methods for their use” (United States of America as represented by the Secretary of …, priority 2000, dated 2007)", "key": {"[1]": {"system": "nymphal Ixodes scapularis", "test": "Treated-vial biocidal screening with 2% acetone solutions (Example 2), tick nymphs", "format": "in vivo", "conditions": "treated vials sat 72 h; arthropods added for the final 24 h", "description": "(§1) Samples of the compounds listed below were obtained as described in Example 1, and screened for biocidal activities against nymphal Ixodes scapularis. In this example, 2% acetone solutions (wt/vol) of the compounds were applied to inner surfaces of 2-dram friction cap vials. Vials and caps were treated then allowed to dry for a minimum of 4 hours before placing 10 nymphs in each container. These same vials were used to challenge additional nymphs and adult I. scapularis ticks and adult Xenopsylla cheopis fleas through five weeks to observe any possible residual activity.\n(§2) Numbers in parentheses refer to length of treatment in terms of hours (h) or weeks (wk). Data is presented in terms of number killed/number tested. For test periods longer than 24 hours, the treated vials were allowed to sit for the stated period after drying (72 h, 4 wk, or 5 wk) and each group of arthropods was added to the vials for the final 24 h of the test period."}, "[2]": {"system": "adult I. scapularis ticks", "test": "Treated-vial biocidal screening with 2% acetone solutions (Example 2), adult ticks, residual", "format": "in vivo, Ixodes scapularis", "conditions": "treated vials sat 4 wk; arthropods added for the final 24 h", "description": "as §1, §2"}, "[3]": {"system": "adult Xenopsylla cheopis fleas", "test": "Treated-vial biocidal screening with 2% acetone solutions (Example 2), adult fleas, residual", "format": "in vivo", "conditions": "treated vials sat 5 wk; arthropods added for the final 24 h", "description": "as §1, §2"}, "I. scapularis nymphs": {"system": "I. scapularis nymphs", "test": "Tick bioassay, treated 2-dram vials, probit analysis", "format": "in vivo, Ixodes scapularis", "conditions": "for Slope: probit", "from_the_text": "A control treated with acetone only was run with each series.\nFor each time point, if ticks and fleas were incapable of movement, maintaining normal posture, leg coordination, ability to right themselves, or any signs of life, they were considered moribund or dead."}, "X. cheopis adults": {"system": "X. cheopis adults", "test": "Flea bioassay, treated 2-dram vials, probit analysis", "format": "in vivo, Xenopsylla cheopis", "conditions": "24 h exposure; for Slope: probit", "description": "Med. […] A control treated with acetone only was run with each series. Tick and flea susceptibility was evaluated using a modification of the disposable pipette method of Barnard et al. (J. Econ. Entomol., 74:466-69, 1981) and Maupin and […]. Med. […] The inner surface of 2-dram friction cap vials were treated with the compound/acetone solution, or acetone only as a control, and left to air-dry overnight (see also, […] et al., J. Med. […] Three to 4 holes were made in the plastic cap to allow for air exchange. Nymphal ticks and adult fleas were then placed directly into the vials using forceps. […] For each time point, if ticks and fleas were incapable of movement, maintaining normal posture, leg coordination, ability to right themselves, or any signs of life, they were considered moribund or dead."}, "Ae. aegypti adults": {"system": "Ae. aegypti adults", "test": "Adult mosquito bottle bioassay", "format": "in vivo, Aedes aegypti", "conditions": "for Slope: probit", "description": "(§3) Adult mosquitoes were tested using the bottle bioassay method of Brogden and McAllister (J. Am. Mosq. Control Assoc., 14:159–64, 1998) with minor modifications. Natural product extracts were two-fold serially diluted for a total of 8 concentrations ranging from 0.002% to 0.25% in 1.5 ml of acetone. Individual dilutions were added to 250 ml Wheaton glass bottles and capped. Bottles were manipulated to evenly coat all inner surfaces. The caps were removed and bottles were allowed to air-dry overnight. Once bottles were completely dry, 10–50 (in some tests 25–50) adult mosquitoes were aspirated into the bottles. Mosquitoes were held in the bottles for 24 h at 23° C. and 85% RH. Morbidity and mortality were recorded at 15, 30, 45, and 60 min and 24 hour intervals. One bottle for each replicate was treated with acetone only and served as a control. The dose-mortality data was evaluated with probit analysis, using the LdP Line software, to determine LC50 and LC90 values.\nCarvacrol was combined with compound 7, 9, or 10 at a 1:1 ratio (7.5 μl of carvacrol:7.5 μl of compound 7, 9, or 10 was added to 2,985 μl of acetone for a 0.5% solution, from which serial dilutions were made), and tested as previously described against nymphal ticks and adult and larval mosquitoes."}, "Ixodes scapularis nymphs": {"system": "Ixodes scapularis nymphs", "test": "Residual activity, aged treated vials, ticks", "format": "in vivo", "conditions": "for LC90, residual activity: NE = not effective", "description": "(§4) Briefly, groups of 10 nymphal I. scapularis and X. cheopis fleas were used in all tests (more than a total of 5,240 nymphs and 4,860 fleas were exposed to the compounds). The inner surface of 2-dram friction cap vials were treated with the compound/acetone solution, or acetone only as a control, and left to air-dry overnight (see also, Panella et al., J. Med. Entomol., 42(3):352-358, 2005. Three to 4 holes were made in the plastic cap to allow for air exchange. Nymphal ticks and adult fleas were then placed directly into the vials using forceps. Vials containing ticks or fleas were placed in desiccators for 24 h at 21° C. and 90% RH. Morbidity and mortality was recorded at 1, 2, 4, 8, and 24 h after initial exposure."}, "Aedes aegypti adults": {"system": "Aedes aegypti adults", "test": "Residual activity, aged treated bottles, mosquitoes", "format": "in vivo", "description": "as §3"}, "[4]": {"system": "ticks, fleas, and mosquitoes", "test": "Residual activity, general statements (Examples 9, 17)", "format": "in vivo", "conditions": "ticks"}, "[5]": {"system": "Xenopsylla cheopis adults", "test": "Residual activity, aged treated vials, fleas", "format": "in vivo", "description": "as §4"}, "[6]": {"system": "fourth-instar Aedes aegypti larvae", "test": "Larval mosquito bioassay", "format": "in vivo", "conditions": "Aedes aegypti larval mosquitoes; concentration of the 1 ml added to 150 ml water", "description": "Individual groups of 10 fourth-instar Aedes aegypti larvae were contained in 150 ml of water and exposed to […] of essential oils prepared by 2-fold serial dilutions ranging from 0.06%–5.0% in 1 ml of acetone. A control group of larvae were exposed to 1 ml of acetone only.\nIt is important to note that larval mosquitoes are tested in their natural environment, i.e., in water. The particular assays used herein involved groups of 10 larval mosquitoes in 150 ml of water. The weight percentages reported for lethal concentration for larval mosquitoes are the weight percentages added to the 150 ml water (as opposed to the final percentage of the tested compound(s) in the 150 ml water). As one of skill in the art will appreciate, test compound(s) added to a volume of water (such as, 150 ml) can be dramatically diluted depending upon the water solubility of the tested compound. […] If the tested compound is an oil (such as, carvacrol, nootkatone, or 13-hydroxy-valencene), it most likely floats on the surface of the water."}, "[7]": {"system": "Ixodes scapularis nymphal ticks", "test": "Tick repellency bioassay", "format": "in vivo", "conditions": "listed as Nootkatone (Compound 9)", "from_the_text": "One-hundred (100) μl of test compound was pipetted onto a cotton-tipped applicator mounted to the bottom center of a 1 dram glass shell vial using non-toxic modeling clay. A total of 8 concentrations were screened with doses ranging from 0.04–5.0%. Applicators treated with acetone only served as controls. A line was drawn around the perimeter of the vial immediate to the base of the treated cotton portion of the applicator. The area above the line was designated the “repellent zone”. The vial was allowed to air-dry 1 h before a single tick was introduced. Vials were covered with a single piece of mesh and fitted with a hollowed-out plastic cap to cover the opening of the vial; this prevented the tick from escaping but allowed for air exchange. Vials were breathed upon by investigators at 1 min intervals and a hand was placed over the test vials to provide stimuli for ticks to pass into the repellent zone. […] If the tick crossed over and remained in the “repellent zone” for ≧5 sec, the tick was deemed non-repelled by the test compound. Each test was replicated 10 times using a new tick for each test. Repellent activity was determined at 1, 2, 3, and 4 h after treatment. Probit analysis was used to determine repellent efficacy (RD50 and RD95)."}, "[8]": {"conditions": "24 h exposure, NE = not effective at concentrations tested"}, "[9]": {"conditions": "NE = not effective at concentrations tested"}, "[10]": {"conditions": "Ixodes scapularis nymphal ticks, alone, or 1:1 with carvacrol (in parenthesis)"}, "[11]": {"conditions": "Aedes aegypti adult mosquitoes, alone, or 1:1 with carvacrol (in parenthesis)"}, "[12]": {"conditions": "1 h after compound applied to applicator"}, "[13]": {"conditions": "4 h after compound applied to applicator"}}}
{"compound": "C=C(C)C1CC=C2C=CCC(C)C2(C)C1", "note": "(stereo not shown) [Compound 6, Nootkatene]", "values": [{"measurement": "I. scapularis nymphs (72 h), number killed/number tested", "setting": "[1]", "value": "4/5"}, {"measurement": "I. scapularis adults (4 wk), number killed/number tested", "setting": "[2]", "value": "0/5"}, {"measurement": "X. cheopis adults (5 wk), number killed/number tested", "setting": "[3]", "value": "0/5"}, {"measurement": "LC50", "setting": "I. scapularis nymphs; [8]", "value": "0.011 percent concentration, wt:vol"}, {"measurement": "LC90", "setting": "I. scapularis nymphs; [8]", "value": "0.06 percent concentration, wt:vol"}, {"measurement": "Slope", "setting": "I. scapularis nymphs; 24 h exposure", "value": 1.763}, {"measurement": "LC50", "setting": "X. cheopis adults; [9]", "value": "0.017 percent concentration, wt:vol"}, {"measurement": "Slope", "setting": "X. cheopis adults", "value": 2.022}, {"measurement": "LC50", "setting": "Ae. aegypti adults; [8]", "value": "0.027 percent concentration, wt:vol"}, {"measurement": "Slope", "setting": "Ae. aegypti adults; 24 h exposure", "value": 3.696}, {"measurement": "Slope, residual activity", "setting": "Ixodes scapularis nymphs; 1 week after treatment", "value": 0.533}, {"measurement": "LC90, residual activity", "setting": "Aedes aegypti adults; 1 week after treatment", "value": "0.659 percent concentration, wt:vol"}, {"measurement": "Slope, residual activity", "setting": "Aedes aegypti adults; 1 week after treatment", "value": 1.833}, {"measurement": "residual activity", "setting": "[4]", "value": "did not demonstrate any residual activity after one week"}]}
{"compound": "C=C(C)[C@@H]1CCC2=CC(=O)C[C@@H](C)[C@]2(C)C1", "note": "[Compound 9, Nootkatone]", "values": [{"measurement": "LC90", "setting": "I. scapularis nymphs; [8]", "value": "0.0087 percent concentration, wt:vol"}, {"measurement": "Slope", "setting": "I. scapularis nymphs; 24 h exposure", "value": 3.061}, {"measurement": "LC50 (1 h)", "setting": "I. scapularis nymphs; [10]", "value": "0.016 % (wt:vol)"}, {"measurement": "LC50 (24 h)", "setting": "I. scapularis nymphs; [10]", "value": "0.0033 % (wt:vol)"}, {"measurement": "LC90 (1 hr)", "setting": "I. scapularis nymphs; [10]", "value": "0.331 % (wt:vol)"}, {"measurement": "LC90 (24 h)", "setting": "I. scapularis nymphs; [10]", "value": "0.0087 % (wt:vol)"}, {"measurement": "LC50 (1 h)", "setting": "I. scapularis nymphs; Ixodes scapularis nymphal ticks, alone, or 1:1 with carvacrol (in parenthesis), listed as compound 9", "value": "0.016 % (wt:vol)"}, {"measurement": "LC90", "setting": "X. cheopis adults; [9]", "value": "0.018 percent concentration, wt:vol"}, {"measurement": "Slope", "setting": "X. cheopis adults", "value": 2.9}, {"measurement": "LC90", "setting": "Ae. aegypti adults; [8]", "value": "0.021 percent concentration, wt:vol"}, {"measurement": "Slope", "setting": "Ae. aegypti adults; 24 h exposure", "value": 2.845}, {"measurement": "LC50 (15 min)", "setting": "Ae. aegypti adults; [11]", "value": "0.136 % (wt:vol)"}, {"measurement": "LC50 (24 h)", "setting": "Ae. aegypti adults; [11]", "value": "0.0075 % (wt:vol)"}, {"measurement": "LC90 (15 min)", "setting": "Ae. aegypti adults; [11]", "value": "0.453 % (wt:vol)"}, {"measurement": "LC90 (24 h)", "setting": "Ae. aegypti adults; [11]", "value": "0.021 % (wt:vol)"}, {"measurement": "Slope, residual activity", "setting": "Ixodes scapularis nymphs; 1 week after treatment", "value": 1.304}, {"measurement": "LC90, residual activity", "setting": "Ixodes scapularis nymphs; 1 week after treatment", "value": "0.08 percent concentration, wt:vol"}, {"measurement": "Slope, residual activity", "setting": "Ixodes scapularis nymphs; 2 weeks after treatment", "value": 2.649}, {"measurement": "LC90, residual activity", "setting": "Ixodes scapularis nymphs; 2 weeks after treatment", "value": "0.027 percent concentration, wt:vol"}, {"measurement": "Slope, residual activity", "setting": "[5]; 1 week after treatment", "value": 1.633}, {"measurement": "Slope, residual activity", "setting": "[5]; 2 weeks after treatment", "value": 2.571}, {"measurement": "Slope, residual activity", "setting": "[5]; 4 weeks after treatment", "value": 3.135}, {"measurement": "LC90, residual activity", "setting": "Aedes aegypti adults; 1 week after treatment", "value": "0.018 percent concentration, wt:vol"}, {"measurement": "Slope, residual activity", "setting": "Aedes aegypti adults; 1 week after treatment", "value": 4.336}, {"measurement": "Slope, residual activity", "setting": "Aedes aegypti adults; 2 weeks after treatment", "value": 4.014}, {"measurement": "LC90, residual activity", "setting": "Aedes aegypti adults; 2 weeks after treatment, NE = not effective", "value": "0.0088 percent concentration, wt:vol"}, {"measurement": "Slope, residual activity", "setting": "Aedes aegypti adults; 4 weeks after treatment", "value": 4.169}, {"measurement": "LC50 (1 h)", "setting": "[6]", "value": "6.51 % (wt:vol)"}, {"measurement": "LC50 (24 h)", "setting": "[6]", "value": "1.574 % (wt:vol)"}, {"measurement": "LC90 (1 hr)", "setting": "[6]", "value": "22.644 % (wt:vol)"}, {"measurement": "LC90 (24 h)", "setting": "[6]", "value": "2.757 % (wt:vol)"}, {"measurement": "Slope (±SEM)", "setting": "[7]; 1 h", "value": "1.326 (±0.345)"}, {"measurement": "RD50", "setting": "[7]; [12]", "value": "0.101 % (wt:vol)"}, {"measurement": "RD95", "setting": "[7]; [12]", "value": "1.758 % (wt:vol)"}, {"measurement": "Slope (±SEM)", "setting": "[7]; 4 h", "value": "1.406 (±0.299)"}, {"measurement": "RD50", "setting": "[7]; [13]", "value": "0.173 % (wt:vol)"}, {"measurement": "RD95", "setting": "[7]; [13]", "value": "2.561 % (wt:vol)"}, {"measurement": "residual activity", "setting": "[4]", "value": "considerable biological activity through the four week time period"}]}
